Test results from ChEMBL document CHEMBL1151876, “Constrained (l-)-S-adenosyl-l-homocysteine (SAH) analogues as DNA methyltransferase inhibitors” (Bioorg Med Chem Lett, 2009).

Assays:
[1] = target: T1, DNA (cytosine-5)-methyltransferase 1 (Homo sapiens, UniProt P26358)
Description: Inhibition of human recombinant DNMT1

[2] = target: DNA (cytosine-5)-methyltransferase 3B (Homo sapiens, UniProt Q9UBC3)
Description: Inhibition of human recombinant DNMT3b2

[3] = target: T1, DNA (cytosine-5)-methyltransferase 1; settings: 45 uM
Description: Inhibition of human recombinant DNMT1 at 45 uM

T1 sequence (P26358 whole entry): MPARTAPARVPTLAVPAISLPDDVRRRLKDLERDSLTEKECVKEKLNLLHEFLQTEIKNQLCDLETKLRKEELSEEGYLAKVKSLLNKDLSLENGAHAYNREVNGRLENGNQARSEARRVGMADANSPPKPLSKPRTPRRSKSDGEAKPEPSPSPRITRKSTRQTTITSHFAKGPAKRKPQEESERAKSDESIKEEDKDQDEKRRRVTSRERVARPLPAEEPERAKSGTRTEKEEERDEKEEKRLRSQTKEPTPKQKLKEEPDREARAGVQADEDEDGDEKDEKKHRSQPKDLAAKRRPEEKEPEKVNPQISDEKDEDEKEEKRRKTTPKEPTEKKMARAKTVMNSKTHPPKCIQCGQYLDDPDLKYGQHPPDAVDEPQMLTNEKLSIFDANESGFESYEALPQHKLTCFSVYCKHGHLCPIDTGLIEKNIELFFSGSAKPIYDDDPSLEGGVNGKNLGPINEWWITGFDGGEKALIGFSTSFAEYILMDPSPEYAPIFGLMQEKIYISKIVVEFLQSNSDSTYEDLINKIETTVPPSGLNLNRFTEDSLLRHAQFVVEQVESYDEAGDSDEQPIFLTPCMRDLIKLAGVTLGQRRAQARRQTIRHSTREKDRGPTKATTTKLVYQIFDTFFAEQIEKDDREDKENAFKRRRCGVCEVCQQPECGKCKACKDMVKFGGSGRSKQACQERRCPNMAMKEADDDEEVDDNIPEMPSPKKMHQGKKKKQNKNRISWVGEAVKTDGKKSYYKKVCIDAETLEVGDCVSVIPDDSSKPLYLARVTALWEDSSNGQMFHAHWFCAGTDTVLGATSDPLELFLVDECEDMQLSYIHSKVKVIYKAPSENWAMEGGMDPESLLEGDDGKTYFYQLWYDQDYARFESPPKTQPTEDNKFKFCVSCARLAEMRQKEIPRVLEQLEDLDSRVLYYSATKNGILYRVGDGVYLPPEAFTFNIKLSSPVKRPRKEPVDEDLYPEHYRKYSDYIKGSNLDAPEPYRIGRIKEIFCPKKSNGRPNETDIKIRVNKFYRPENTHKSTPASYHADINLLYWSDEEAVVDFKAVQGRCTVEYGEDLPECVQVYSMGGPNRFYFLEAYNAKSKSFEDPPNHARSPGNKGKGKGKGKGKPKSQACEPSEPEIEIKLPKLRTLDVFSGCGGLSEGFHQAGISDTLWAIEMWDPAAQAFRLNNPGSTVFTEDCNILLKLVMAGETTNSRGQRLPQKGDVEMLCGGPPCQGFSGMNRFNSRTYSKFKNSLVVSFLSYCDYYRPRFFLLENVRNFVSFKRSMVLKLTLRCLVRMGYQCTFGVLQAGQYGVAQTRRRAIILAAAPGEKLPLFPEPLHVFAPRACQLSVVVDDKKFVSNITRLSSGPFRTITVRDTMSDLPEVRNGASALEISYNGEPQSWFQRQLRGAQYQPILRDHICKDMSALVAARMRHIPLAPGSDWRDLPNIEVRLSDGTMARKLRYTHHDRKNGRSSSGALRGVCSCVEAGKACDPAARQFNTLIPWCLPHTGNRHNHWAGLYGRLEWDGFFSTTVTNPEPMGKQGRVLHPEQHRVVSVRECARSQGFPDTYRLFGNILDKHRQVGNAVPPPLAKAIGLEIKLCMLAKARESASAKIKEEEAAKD

Row | IC50 [1] [µM] | IC50 [2] [µM] | inhibition [3] [%] | Structure (SMILES)
1 | 4.5 |  |  | COC(=O)[C@@H]1C[C@H](SC[C@H]2O[C@@H](n3cnc4c(N)ncnc43)[C@H](O)[C@@H]2O)CN1C
2 | 4 |  |  | COC(=O)[C@@H]1C[C@H](SC[C@H]2O[C@@H](n3cnc4c(N)ncnc43)[C@H](O)[C@@H]2O)CN1
3 | 4.8 | 12 |  | Nc1ncnc2c1ncn2[C@@H]1O[C@H](CS[C@@H]2CCNC2)[C@@H](O)[C@H]1O
4 | 1.1 | 0.3 |  | Nc1ncnc2c1ncn2[C@@H]1O[C@H](CS[C@@H]2CN[C@H](C(=O)O)C2)[C@@H](O)[C@H]1O
5 | 44 | 26 |  | Nc1ncnc2c1ncn2[C@@H]1O[C@H](CS[C@H]2CCNC2)[C@@H](O)[C@H]1O
6 |  |  | 18 | Nc1ncnc2c1ncn2[C@@H]1O[C@H](CS[C@H]2CCCNC2)[C@@H](O)[C@H]1O
7 |  | 0.2 |  | Nc1ncnc2c1ncn2[C@@H]1O[C@H](CSCC[C@H](N)C(=O)O)[C@@H](O)[C@H]1O [S-ADENOSYLHOMOCYSTEINE]
8 |  | > 100 |  | Nc1ncnc2c1ncn2[C@@H]1O[C@H](CSC2CNC2)[C@@H](O)[C@H]1O
9 | > 10 |  |  | CN1CC[C@@H](SC[C@H]2O[C@@H](n3cnc4c(N)ncnc43)[C@H](O)[C@@H]2O)C1
10 |  |  | 1 | NC(=O)[C@@H]1C[C@H](SC[C@H]2O[C@@H](n3cnc4c(N)ncnc43)[C@H](O)[C@@H]2O)CN1
11 | > 100 | 54 |  | Nc1ncnc2c1ncn2[C@@H]1O[C@H](CS[C@H]2CN[C@H](C(=O)O)C2)[C@@H](O)[C@H]1O
12 | > 100 |  |  | Nc1ncnc2c1ncn2[C@@H]1O[C@H](CS[C@H]2CCN[C@@H](C(=O)O)C2)[C@@H](O)[C@H]1O
13 | 94 |  |  | Nc1ncnc2c1ncn2[C@@H]1O[C@H](CS[C@@H]2CCC[C@@H]2N)[C@@H](O)[C@H]1O
14 | > 100 |  |  | Nc1ncnc2c1ncn2[C@@H]1O[C@H](CS[C@@H]2CCN[C@H](C(=O)O)C2)[C@@H](O)[C@H]1O
15 | 2.5 |  |  | O=C(O)[C@@H]1C[C@H](SC[C@H]2O[C@@H](n3cnc4c(NCCc5ccc(-c6ccccc6)cc5)nc(Cl)nc43)[C@H](O)[C@@H]2O)CN1
16 | 8 |  |  | Nc1ncnc2c1ncn2[C@@H]1O[C@H](CS[C@H]2CCN[C@H](C(=O)O)C2)[C@@H](O)[C@H]1O
17 | 0.82 |  |  | Nc1nc(Cl)nc2c1ncn2C1O[C@H](CS[C@@H]2CN[C@H](C(=O)O)C2)[C@@H](O)[C@H]1O (single isomer, unassigned)

Row | Structure (SMILES) | IC50 [1] [µM] | IC50 [2] [µM] | inhibition [3] [%]
18 | CN1C[C@@H](SC[C@H]2O[C@@H](n3cnc4c(N)ncnc43)[C@H](O)[C@@H]2O)C[C@H]1C(=O)O | > 100 |  | 
19 | Nc1nc(Cl)nc2c1ncn2C1O[C@H](CS[C@H]2CCNC2)[C@@H](O)[C@H]1O (single isomer, unassigned) |  | > 45 | 
20 | NCCCSC[C@H]1O[C@@H](n2cnc3c(N)ncnc32)[C@H](O)[C@@H]1O | > 45 | 17 | 
21 | NCCSC[C@H]1O[C@@H](n2cnc3c(N)ncnc32)[C@H](O)[C@@H]1O | 18 |  | 
